Experimental data from patent US20220016102A1, “ER PROTEIN REGULATORS AND USE THEREOF” (ShanghaiTech University, priority 2018, published 2022).

Key:
[1] = target: T1, ER protein (Homo sapiens, UniProt P03372); experiment: Western blotting analysis of ER protein degradation in T47D cell line; format: cell-based; parameters: western blotting detection of the level of intracellular ER protein; endogenous in cells; host or cells: T47D; details: T47D cells; for DC50: degradation of ER protein, drug treatment for 16 hours, Western blot gray values vs DMSO control, read-out: DC50 (nM)/T47Dcell line
T1 sequence (P03372 1-595): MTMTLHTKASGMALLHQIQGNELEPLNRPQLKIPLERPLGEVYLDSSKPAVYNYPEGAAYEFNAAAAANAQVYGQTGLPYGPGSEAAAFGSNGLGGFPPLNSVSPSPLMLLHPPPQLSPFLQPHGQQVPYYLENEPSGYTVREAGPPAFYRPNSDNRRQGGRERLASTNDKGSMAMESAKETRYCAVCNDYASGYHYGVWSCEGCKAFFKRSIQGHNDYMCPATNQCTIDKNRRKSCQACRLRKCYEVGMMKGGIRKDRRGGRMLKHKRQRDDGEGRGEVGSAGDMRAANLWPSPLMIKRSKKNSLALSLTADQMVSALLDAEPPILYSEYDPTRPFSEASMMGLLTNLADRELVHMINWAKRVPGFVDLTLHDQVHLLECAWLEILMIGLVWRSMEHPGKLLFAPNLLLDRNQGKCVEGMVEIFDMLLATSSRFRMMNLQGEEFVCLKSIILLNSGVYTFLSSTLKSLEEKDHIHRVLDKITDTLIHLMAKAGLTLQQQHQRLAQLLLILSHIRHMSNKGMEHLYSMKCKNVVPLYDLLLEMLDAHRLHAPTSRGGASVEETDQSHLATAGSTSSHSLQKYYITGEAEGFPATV
Procedure: T47D cells were cultured in an incubator with 5% CO2 at 37° C. Complete medium was RPMI1640 supplemented with 10% Foetal bovine serum (FBS), 100 U/ml Penicillin and Streptomycin, and 0.77 μg/mL recombinant human insulin. Western blotting analysis of T47D cell line: • Cells were plated in a 24-well plate at a cell seeding […] of 1.5×10^5 cells/mL, with 1 ml cell suspensions per well. • After 24 h the cells were adherent, and the cells in each well were treated with 1 μL a certain concentration of ER protein regulators of the present disclosure. […] Afterwards, the membranes were block by using the Blocking Buffer, and the antibody incubation and development were performed. (The above procedures were all based on the antibody product manual of the manufacturer) DC50 value (the drug concentration required for degrading proteins by 50%, abbreviated as DC50) reads method: comparing the gray values of the Western blotting bands for the drug treatment with the gray values of the Western blotting band for the DMSO control, and reading the drug concentration range corresponding to the gray value of the Western blotting bands for the drug treatment which is equal to half of the gray value of the Western blotting band for the DMSO control. DC50 value could also be calculated as follows: using software ImageJ to quantify the gray values of the Western blotting bands for the drug treatment, fitting the relationship curve between drug concentrations and gray values, and from the fitted curve, calculating the drug concentration corresponding to half of the gray value of the Western blotting band for the DMSO control.

[2] = target: T1, ER protein; experiment: Western blotting analysis of ER protein degradation in MCF-7 cell line; format: cell-based; parameters: western blotting detection of the level of intracellular ER protein; endogenous in cells; details: MCF-7 cells, Western blot gray values vs DMSO control
Procedure: MCF-7 were cultured in ncubator with 5% CO2 at 37° C. Complete medium was EMEM supplemented with 10% FBS, 100 U/mL Penicillin and Streptomycin, and 0.77 μg/mL recombinant human insulin. […]
DC50 value (the drug concentration required for degrading proteins by 50%, abbreviated as DC50) reads method: comparing the gray values of the Western blotting bands for the drug treatment with the gray values of the Western blotting band for the DMSO control, and reading the drug concentration range corresponding to the gray value of the Western blotting bands for the drug treatment which is equal to half of the gray value of the Western blotting band for the DMSO control.
DC50 value could also be calculated as follows: using software ImageJ to quantify the gray values of the Western blotting bands for the drug treatment, fitting the relationship curve between drug concentrations and gray values, and from the fitted curve, calculating the drug concentration corresponding to half of the gray value of the Western blotting band for the DMSO control.

| DC50 [1] [nM] | DC50 [2] [nM] | Degradation of the ER protein in the T47D cell line (Western blotting) ([1]; FIGS. 1(A)-(O)) | Compound |
| --- | --- | --- | --- |
| < 50 | < 100 |  | Cc1ncsc1-c1ccc(CNC(=O)[C@@H]2C[C@@H](O)CN2C(=O)[C@@H](NC(=O)CCOCCOCCC(=O)NCCOc2ccc(C(=C(CCCl)c3ccccc3)c3ccc(O)cc3)cc2)C(C)(C)C)cc1 [SIAIS208017, (2S,4R)-1-((S)-2-(tert-butyl)-16-(4-(4-chloro-1-(4-hydroxyphenyl)-2-phenylbut-1-en-1-yl)phenoxy)-4,13-dioxo-7,10-dioxa-3,14-diazahexadecanoyl)-4-hydroxy-N-(4-(4-methylthiazol-5-yl)benzyl)pyrrolidine-2-carboxamide] |
| < 50 |  |  | CCC(=C(c1ccc(O)cc1)c1ccc(OCCNC(=O)CCCCCCCCCC(=O)N[C@H](C(=O)N2C[C@H](O)C[C@H]2C(=O)NCc2ccc(-c3scnc3C)cc2)C(C)(C)C)cc1)c1ccc(O)cc1 [SIAIS208169, N1-(2-(4-(1,2-bis(4-hydroxyphenyl)but-1-en-1-yl)phenoxy)ethyl)-N11-((S)-1-((2S,4R)-4-hydroxy-2-((4-(4-methylthiazol-5-yl)benzyl)carbamoyl)pyrrolidin-1-yl)-3,3-dimethyl-1-oxobutan-2-yl)undecanediamide] |
| < 50 |  |  | CCC(=C(c1ccc(O)cc1)c1ccc(OCCNC(=O)CCN2CCN(CCNc3cccc4c3C(=O)N(C3CCC(=O)NC3=O)C4=O)CC2)cc1)c1ccc(O)cc1 (centres unmarked) [SIAIS208172, N-(2-(4-(1,2-bis(4-hydroxyphenyl)but-1-en-1-yl)phenoxy)ethyl)-3-(4-(2-((2-(2,6-dioxopiperidin-3-yl)-1,3-dioxoisoindolin-4-yl)amino)ethyl)piperazin-1-yl)propanamide] |
| < 50 |  |  | CCC(=C(c1ccc(O)cc1)c1ccc(OCCNC(=O)CCOCCOCCOCCC(=O)N[C@H](C(=O)N2C[C@H](O)C[C@H]2C(=O)NCc2ccc(-c3scnc3C)cc2)C(C)(C)C)cc1)c1ccc(O)cc1 [SIAIS208174, (2S,4R)-1-((S)-19-(4-(1,2-bis(4-hydroxyphenyl)but-1-en-1-yl)phenoxy)-2-(tert-butyl)-4,16-dioxo-7,10,13-trioxa-3,17-diazanonadecanoyl)-4-hydroxy-N-(4-(4-methylthiazol-5-yl)benzyl)pyrrolidine-2-carboxamide] |
| 50 |  |  | O=C(CCCCCCNc1cccc2c1CN(C1CCC(=O)NC1=O)C2=O)NCCOc1ccc(C(=C(CCCl)c2ccccc2)c2ccc(O)cc2)cc1 (centres unmarked) [SIAIS251033, N-(2-(4-(4-chloro-1-(4-hydroxyphenyl)-2-phenylbut-1-en-1-yl)phenoxy)ethyl)-7-((2-(2,6-dioxopiperidin-3-yl)-1-oxoisoindolin-4-yl)amino)heptanamide] |
| < 50 |  |  | Cc1ncsc1-c1ccc(CNC(=O)[C@@H]2C[C@@H](O)CN2C(=O)[C@@H](NC(=O)CCCC(=O)N2CCN(CCOc3ccc(C(=C(CCCl)c4ccccc4)c4ccc(O)cc4)cc3)CC2)C(C)(C)C)cc1 [SIAIS251042, (2S,4R)-1-((S)-2-(5-(4-(2-(4-(4-chloro-1-(4-hydroxyphenyl)-2-phenylbut-1-en-1-yl)phenoxy)ethyl)piperazin-1-yl)-5-oxopentanamido)-3,3-dimethylbutanoyl)-4-hydroxy-N-(4-(4-methylthiazol-5-yl)benzyl)pyrrolidine-2-carboxamide] |
| < 50 |  |  | Cc1ncsc1-c1ccc(CNC(=O)[C@@H]2C[C@@H](O)CN2C(=O)[C@@H](NC(=O)CCCCC(=O)N2CCN(CCOc3ccc(C(=C(CCCl)c4ccccc4)c4ccc(O)cc4)cc3)CC2)C(C)(C)C)cc1 [SIAIS251043, (2S,4R)-1-((S)-2-(6-(4-(2-(4-(4-chloro-1-(4-hydroxyphenyl)-2-phenylbut-1-en-1-yl)phenoxy)ethyl)piperazin-1-yl)-6-oxohexanamido)-3,3-dimethylbutanoyl)-4-hydroxy-N-(4-(4-methylthiazol-5-yl)benzyl)pyrrolidine-2-carboxamide] |
| < 50 |  |  | Cc1ncsc1-c1ccc(CNC(=O)[C@@H]2C[C@@H](O)CN2C(=O)[C@@H](NC(=O)CCCCCCCC(=O)N2CCN(CCOc3ccc(C(=C(CCCl)c4ccccc4)c4ccc(O)cc4)cc3)CC2)C(C)(C)C)cc1 [SIAIS251046, (2S,4R)-1-((S)-2-(9-(4-(2-(4-(4-chloro-1-(4-hydroxyphenyl)-2-phenylbut-1-en-1-yl)phenoxy)ethyl)piperazin-1-yl)-9-oxononanamido)-3,3-dimethylbutanoyl)-4-hydroxy-N-(4-(4-methylthiazol-5-yl)benzyl)pyrrolidine-2-carboxamide] |
| < 50 |  |  | Cc1ncsc1-c1ccc(CNC(=O)[C@@H]2C[C@@H](O)CN2C(=O)[C@@H](NC(=O)CCCCCCCCC(=O)N2CCN(CCOc3ccc(C(=C(CCCl)c4ccccc4)c4ccc(O)cc4)cc3)CC2)C(C)(C)C)cc1 [SIAIS251047, (2S,4R)-1-((S)-2-(10-(4-(2-(4-(4-chloro-1-(4-hydroxyphenyl)-2-phenylbut-1-en-1-yl)phenoxy)ethyl)piperazin-1-yl)-10-oxodecanamido)-3,3-dimethylbutanoyl)-4-hydroxy-N-(4-(4-methylthiazol-5-yl)benzyl)pyrrolidine-2-carboxamide] |
| < 50 |  |  | Cc1ncsc1-c1ccc(CNC(=O)[C@@H]2C[C@@H](O)CN2C(=O)[C@@H](NC(=O)CCOCCOCCC(=O)N2CCN(CCOc3ccc(C(=C(CCCl)c4ccccc4)c4ccc(O)cc4)cc3)CC2)C(C)(C)C)cc1 [SIAIS251049, (2S,4R)-1-((S)-2-(3-(2-(3-(4-(2-(4-(4-chloro-1-(4-hydroxyphenyl)-2-phenylbut-1-en-1-yl)phenoxy)ethyl)piperazin-1-yl)-3-oxopropoxy)ethoxy)propanamido)-3,3-dimethylbutanoyl)-4-hydroxy-N-(4-(4-methylthiazol-5-yl)benzyl)pyrrolidine-2-carboxamide] |
| < 50 |  |  | Cc1ncsc1-c1ccc(CNC(=O)[C@@H]2C[C@@H](O)CN2C(=O)[C@@H](NC(=O)CCOCCOCCOCCC(=O)N2CCN(CCOc3ccc(C(=C(CCCl)c4ccccc4)c4ccc(O)cc4)cc3)CC2)C(C)(C)C)cc1 [SIAIS251050, (2S,4R)-1-((S)-2-(tert-butyl)-16-(4-(2-(4-(4-chloro-1-(4-hydroxyphenyl)-2-phenylbut-1-en-1-yl)phenoxy)ethyl)piperazin-1-yl)-4,16-dioxo-7,10,13-trioxa-3-azahexadecanoyl)-4-hydroxy-N-(4-(4-methylthiazol-5-yl)benzyl)pyrrolidine-2-carboxamide] |
| < 50 |  |  | Cc1ncsc1-c1ccc(CNC(=O)[C@@H]2C[C@@H](O)CN2C(=O)[C@@H](NC(=O)CCOCCOCCOCCOCCC(=O)N2CCN(CCOc3ccc(C(=C(CCCl)c4ccccc4)c4ccc(O)cc4)cc3)CC2)C(C)(C)C)cc1 [SIAIS251051, (2S,4R)-1-((S)-2-(tert-butyl)-19-(4-(2-(4-(4-chloro-1-(4-hydroxyphenyl)-2-phenylbut-1-en-1-yl)phenoxy)ethyl)piperazin-1-yl)-4,19-dioxo-7,10,13,16-tetraoxa-3-azanonadecanoyl)-4-hydroxy-N-(4-(4-methylthiazol-5-yl)benzyl)pyrrolidine-2-carboxamide] |
|  |  | did not degrade the ER protein | NCCOc1ccc(C(=C(CCCl)c2ccccc2)c2ccc(O)cc2)cc1 [Toremifene derivative B, 4-(1-(4-(2-aminoethoxy)phenyl)-4-chloro-2-phenylbut-1-en-1-yl)phenol, reference compound] |
